US10683546B2, “Kit for predicting treatment with glucocorticoids and method comprising the same” (UNIVERSIDAD DE CHILE, priority 2015, dated 2020)
Values joined by “and” are separate entries in the source; they are usually repeats but may differ in a detail not shown here. Equal entries are not always repeated.

Test system: GRα mRNA levels in PBMC
Assay: Fold change ratio of GRα mRNA levels in PBMC of VKH patients after two weeks of prednisone (GC) treatment, RT-qPCR
Format: in vivo, human
Settings: for Fold change ratio of GR levels in PBMC: after two weeks of Prednisone treatment vs baseline, oral 1 mg/Kg/day, 1 mg/kg/day; for GRα mRNA fold change median / GRα mRNA fold change range: two weeks of systemic GC therapy vs baseline
Method: 1) Obtainment of a 10-100 ml blood sample—preferably collected in the morning by automatic aspiration (vacutainer®) or manual (disposable syringe) methods. As an alternative or complementarily, the affected tissue or cell type may be completely or partially removed in order to carry out measurements.
2) After obtaining the sample, peripheral mononuclear cells (PBMC) are procured by the Ficoll gradient method, where a hydrophilic polysaccharide allows separating blood components into plasma, PBMC and erythrocytes. Alternatively or complementarily, the isolation of specific cell sub-types, such as CD4+, CD14+, CD8+cells, among others, may be conducted using a strategy based on magnetic microbeads or cell sorting by flow cytometry.
3) Subsequently, total RNA is extracted (Life Technologies, Inc.) by the TRIZOL method. For the obtainment of cDNA, 0.5 to 2 μg RNA is used as a template. Reverse transcription is performed preferably with kit ImProm-II™ Reverse Transcription System (Promega): a reaction mixture is prepared with 0.5 to 2 μg RNA, 1 μL Random Hexamers, 4 μL 5× ImProm-II™ RT buffer up to a final 20 μL volume, which is then incubated at 70° C. for 5 minutes, 4° C. for 5 minutes, 25° C. for 5 minutes, 42° C. for 60 minutes and 25° C. for 5 minutes.
4) cDNA is amplified using primers specific for GRα isoform: 5′-[…]-3′ (sense, SEQ ID NO: 1) and 5′-[…]-3′ (antisense, SEQ ID NO: 2) that correspond to nucleotides 2158-2178 and 2616-2635 of GRα cDNA.
5) For the amplification, a cDNA polymerase is used, preferably, the enzyme Go Taq® Flexi DNA Polymerase (Promega), starting the reaction with an initial 5 minute incubation at 95° C., followed then by 30 cycles as detailed: 95° C. for 30 seconds, 60° C. for 30 seconds and 72° C. for 30 seconds. For quantification by Real-Time qPCR a fluorophore is used, using preferably SYBR Green as fluorophore. GR measurements are made in duplicate. Finally, the results are standardized according to the expression of 18s rDNA gene that codes for the 18s ribosomal subunit.
6) Repetition of GRα mRNA level assessment according to the described protocol is carried out two weeks after initiating GC treatment. An increase is observed in GRα expression in sensitive patients and a reduction of the same in resistant patients (median of 5.5 versus 0.7, respectively).
7) Calculation of fold change ratio in GRα mRNA levels between the initial assessment and a later assessment after 2 weeks of GC treatment. GR fold change ratio=GR mRNA-2 weeks/GR mRNA at baseline
The method described in the present invention has been assessed in a group of 21 patients with Vogt-Koyanagi-Harada (VKH) disease, a specific uveitis subtype.
Cases: 13 patients affected by VKH with an inadequate response to oral treatment with 1 mg/Kg/day prednisone, in two separate doses, ⅔ of the daily dose in the morning and ⅓ of the dose in the afternoon.
Controls: 8 patients affected by VKH with an adequate response to the oral treatment with 1 mg/Kg/day prednisone, in two separate doses, ⅔ of the daily dose in the morning and ⅓ of the dose in the afternoon.
An analysis was conducted on the fold change ratio of GR transcript expression two weeks after treatment initiation, in comparison with baseline levels (prior to treatment initiation), segregating in accordance with the clinical response during follow-up. To calculate this fold change ratio, an arithmetic operation is conducted, that consists in dividing the GR levels obtained two weeks after the treatment and the baseline or initial GR levels. GR fold change ratio=GR mRNA-2 weeks/GR mRNA at baseline

[1] = patients clinically sensitive to GC

C[C@]12C=CC(=O)C=C1CC[C@@H]1[C@@H]2C(=O)C[C@@]2(C)[C@H]1CC[C@]2(O)C(=O)CO [Prednisone, prednisone]
Fold change ratio of GR levels in PBMC (individual patients with Vogt-Koyanagi-Harada disease clinically Resistant to GC): 0.667 and 0.225 and 0.243 and 0.841 and 0.759
Fold change ratio of GR levels in PBMC (individual patients with Vogt-Koyanagi-Harada disease clinically Sensitive to GC): 5.21 and 8.49 and 2.53 and 0.237 and 17.8 and 15 and 5.52
GRα mRNA fold change median [1]: 5.5
GRα mRNA fold change range [1]: 0.23-17.8
GRα mRNA fold change median (patients resistant to GC): 0.7
GRα mRNA fold change range (patients resistant to GC): 0.22-0.84
